Assay results: patent publication US5824657A, “Aminoacyl sulfamides for the treatment of hyperproliferative disorders” (priority 1997, dated 1998)
Like-named read-outs stand apart in the source and are kept apart here.

How the values were obtained:
[1] = test system: aminoacyl-tRNA synthetases (aaRS) isolated from HeLa cells; experiment: IC50 determination, aaRS charging and trichloroacetic acid precipitation assay, aaRS partially purified from HeLa cell extracts; format: biochemical; settings: preincubation 20 minutes at 25° C., reaction 5-20 minutes
Method: IC50 determinations for the aminoacyl-tRNA synthetases (aaRS) isolated from HeLa cells were carried out using a modification of the aaRS charging and trichloroacetic acid precipitation assay described previously (see examples: D. Kern et. al., Biochemie, 61, 1257-1272 (1979) and J. Gilbart et. al. Antimicrobial Agents and Chemotherapy, 37(1), 32-38 (1993)). […] For practical purposes, the minimal acceptable value is approximately 2000 cpm per 10 minute reaction. The final dilution of the HeLa extract in the assays for the aaRS enzymes varies from 50 to 1200-fold.
Test compounds were typically present as serial dilutions in concentrations ranging from 0.35 nM to 35 μM. Test compound solutions were prepared by dissolving test compounds in 100% dimethyl sulfoxide and diluting to the final concentration with 50 mM HEPES, pH 7.5. IC50 determinations were typically performed in duplicate with each experiment containing 4-8 concentrations of test compound and with duplicate controls containing no inhibitor.
The reaction was incubated at 25° C. for 5-20 minutes. At specified time points a 15 microliter aliquot was removed and added to a well of a Millipore filtration plate (Multiscreen-FB, MAFB NOB 10) containing 100 microliters of cold 5% (wt/vol) trichloroacetic acid. Trichloroacitic acid precipitable material was collected by filtration on a Millipore Multiscreen filtration station, washed twice with cold 5% trichloroacetic acid, twice with water, and dried. Plates were typically allowed to air dry for several hours or baked at 50° C. in a vacuum oven for 30 minutes. The radioactivity on the dried plates was quantitated by the addition of Packard Microscint-20 to the wells and counting with a Packard TopCount scintillation counter.
Inhibitor activity typically was reported as a percentage of the control aaRS activity. […] The IC50 (in nM, Hela Cells) values of representative compounds of the present invention are listed in column 5 of Table I.

[2] = test system: human epidermoid carcinoma cell line A-253 (ATCC HTB 41); experiment: MTT assay, human epidermoid carcinoma cell line; format: cell-based; settings: read-out: IC50 Human Epidermoid Carcinoma Cells ATCC # HTB 41
Method: The MTT assay was used as a model to measure the inhibitory effects of the compounds of Formula I. The MTT assay is considered the most convenient modern assay for the determination of cell viability and cell proliferation. An MTT assay kit is commercially available (Chemicon International Inc., Temecula, Calif.). The MTT assay was performed according to manufacturer's instructions as outlined below.
A human epidermoid carcinoma cell line, designated as A-253 (ATCC HTB 41), was obtained in frozen vials from the American Type Culture Collection, Rockville, Md. Monolayer cultures were established from the vials by growth in RPMI 1640 medium supplemented with 10% fetal bovine serum (heat-inactivated), 2 mM L-glutamine, and pen-strep (100 units/ml; 100 μg/ml). The cultures were incubated at 37±1.5° C. in 5±1% CO2 in humidified air and were passaged weekly to avoid overgrowth. The laboratory cultures used for the present study were at passage seven after receipt of frozen stocks from ATCC.
Compounds of Formula I in powder form were stored at room temperature in plastic micro centrifuge tubes. Each tube was placed in a plastic bag containing desiccant. Each test compound was prepared as a 2 mg/ml solution in RPMI 1640 medium (non-supplemented) on the day of use, and the appropriate dilutions were prepared with the same vehicle.
Each compound was handled by sterile techniques in Class II, Type B biological safety cabinets.
The reference control compound was methotrexate at concentrations of 0.5 μg/ml to 50 μg/ml. A 1 mg/ml stock was prepared on the day of dosing and diluted to the appropriate concentrations using RPMI 1640 medium (non-supplemented).
A blank control was included in the MTT assay in order to determine the absorbance associated with the absence of any cells. This control was RPMI 1640 culture medium carried through the same procedures used to culture the cells in the microwell plates and to conduct the MTT assay color development. The microwell plate reader was zeroed against the blank control prior to recording the absorbance in the test wells.
Laboratory monolayer cultures of A-253 cells were trypsinized and seeded at a concentration of 24,000 cells in 0.05 ml of complete RPMI 1640 culture medium per well in 96-well plates. Eight wells in a column were seeded for each test condition. The blank control was prepared by adding 0.05 ml of culture medium (no cells) to 8 wells in the first column of each plate. A separate microwell plate was used for each compound of Formula I.
The test compound treatments were initiated immediately after seeding the cells by adding 0.05 ml of treatment medium to each microwell. Ten different test compound concentrations were prepared in culture medium (without serum), and each concentration was applied to a volume of eight wells on the appropriate plate. The final concentrations in the wells were 1000, 500, 250, 100, 50, 25, 10, 5, 2.5, and 1 μg/ml.
An untreated (zero-dose) condition was included as a column of 8 wells on each plate. The zero-dose and blank control wells received 0.05 ml of culture medium (without serum). The microwell plates were placed in an incubator at 37±1.5° C. in 5% CO2 in humidified air for an exposure period of 72±0.5 hours.
After the exposure period, 0.1 ml of MTT dye solution (0.5 mg/ml in serum free RPMI 1640 medium) was added to each micowell. The cultures were returned to the incubator for 2±0.1 hours. Then the medium was removed from each well and placed into a clean microwell plate for temporary storage. A volume of 0.1 ml of color development solution (Solution C, isopropanol with 0.04M HCl, Chemicon MTT Assay kit, Chemicon International Inc., Temecula, Calif.) was added to each new microwell. The contents were carefully mixed and allowed to sit at room temperature for approximately 1 hour. The medium that was saved from each microwell then was pipetted back into the well from which it originally came. […]

[3] = test system: normal human skin fibroblasts cell line ATCC CRL 1501; experiment: MTT assay, normal skin fibroblasts; format: cell-based; settings: Skin fibroblast, similar manner to HTB 41 assay
Method: The MTT assay was used as a model to measure the inhibitory effects of the compounds of Formula I. The MTT assay is considered the most convenient modern assay for the determination of cell viability and cell proliferation. […] The MTT assay was performed according to manufacturer's instructions as outlined below.
The cultures were returned to the incubator for 2±0.1 hours. Then the medium was removed from each well and placed into a clean microwell plate for temporary storage. A volume of 0.1 ml of color development solution (Solution C, isopropanol with 0.04M HCl, Chemicon MTT Assay kit, Chemicon International Inc., Temecula, Calif.) was added to each new microwell. […] The absorbance at 540 nm wavelength was determined in a microwell plate reader within two hours of the final preparation of the plates.
The absorbance at 540 nm was recorded for each well by the microwell plate reader after the instrument was zeroed against the blank controls for each plate. The mean absorbance for each test condition was calculated and compared to the mean absorbance for the zero-dose wells in order to obtain percent values. […]

[4] = test system: isoleucyl-tRNA synthetase; settings: cited from earlier work
[5] = test system: Gram positive bacterial pathogens such as Staphylococcus aureus; settings: cited from earlier work
[6] = A253, MTT assay, exposure 72 hours, plot extended by eye for compounds active at lowest dose

| IC50 [1] [nM] | IC50 [2, 6] [nM] | SMILES | also measured |
| --- | --- | --- | --- |
| 8 | 2530 | NCCCC[C@H](N)C(=O)NS(=O)(=O)NC[C@H]1O[C@@H](n2cnc3c(N)ncnc32)[C@H](O)[C@@H]1O [Compound XI] |  |
| 0.5 | 1370 | CC(C)C[C@H](N)C(=O)NS(=O)(=O)NC[C@H]1O[C@@H](n2cnc3c(N)ncnc32)[C@H](O)[C@@H]1O [III] | IC50 [3]: 13000 nM |
| 27 | 4950 | CC(C)[C@H](N)C(=O)NS(=O)(=O)NC[C@H]1O[C@@H](n2cnc3c(N)ncnc32)[C@H](O)[C@@H]1O [II] |  |
| 3 | 1050 | CSCC[C@H](N)C(=O)NS(=O)(=O)NC[C@H]1O[C@@H](n2cnc3c(N)ncnc32)[C@H](O)[C@@H]1O [IV] |  |
| 50 | 1490 | NCC(=O)NS(=O)(=O)NC[C@H]1O[C@@H](n2cnc3c(N)ncnc32)[C@H](O)[C@@H]1O [IX] |  |
| 0.9 | 3050 | CC[C@H](C)[C@H](N)C(=O)NS(=O)(=O)NC[C@H]1O[C@@H](n2cnc3c(N)ncnc32)[C@H](O)[C@@H]1O [I] |  |
| 140 | 9250 | Nc1ncnc2c1ncn2[C@@H]1O[C@H](CNS(=O)(=O)NC(=O)[C@@H](N)CO)[C@@H](O)[C@H]1O [VI, 5'-deoxy-adenosine 5'-N-(N-L-seryl)sulfamide] |  |
| 174 | 5000 | Nc1ncnc2c1ncn2[C@@H]1O[C@H](CNS(=O)(=O)NC(=O)[C@@H](N)CC(=O)O)[C@@H](O)[C@H]1O [VIII] |  |
| 22 | 1440 | C[C@H](N)C(=O)NS(=O)(=O)NC[C@H]1O[C@@H](n2cnc3c(N)ncnc32)[C@H](O)[C@@H]1O [VII] |  |
|  | 10500 | Nc1ncnc2c1ncn2[C@@H]1O[C@H](CNS(=O)(=O)NC(=O)[C@@H](N)CCC(=O)O)[C@@H](O)[C@H]1O [XII] |  |
| 40 | 9630 | C[C@@H](O)[C@H](N)C(=O)NS(=O)(=O)NC[C@H]1O[C@@H](n2cnc3c(N)ncnc32)[C@H](O)[C@@H]1O [XVIII] |  |
| 400 | 3590 | NC(=O)CC[C@H](N)C(=O)NS(=O)(=O)NC[C@H]1O[C@@H](n2cnc3c(N)ncnc32)[C@H](O)[C@@H]1O [XVI] |  |

Second part, the molecule before the results:

| SMILES | IC50 [1] [nM] | IC50 [2, 6] [nM] | also measured |
| --- | --- | --- | --- |
| Nc1ncnc2c1ncn2[C@@H]1O[C@H](CNS(=O)(=O)NC(=O)[C@@H](N)Cc2c[nH]c3ccccc23)[C@@H](O)[C@H]1O [Compound X, 5'-deoxy-adenosine 5'-N-(N-L-tryptophanyl)sulfamide] | 300 | 530 | IC50 [3]: 80 nM |
| CN(Cc1cnc2nc(N)nc(N)c2n1)c1ccc(C(=O)N[C@@H](CCC(=O)O)C(=O)O)cc1 [Methotrexate, reference compound] |  |  | IC50 ([2]; A253, 72 h): 40 nM |
| CC(=CC(=O)OCCCCCCCCC(=O)O)CC1OCC(CC2OC2C(C)C(C)O)C(O)C1O (stereo not drawn) [Pseudomonic acid A] |  |  | inhibition of isoleucyl adenylate formation [4]: inhibits isoleucyl adenylate formation; inhibition of protein synthesis and growth [5]: inhibition of protein synthesis, followed by growth inhibition |
| CC1=C(/C=C/C(C)=C/C=C/C(C)=C/C(=O)O)C(C)(C)CCC1 [Retinoic acid, reference compound] |  |  | IC50 ([2]; A253, 72 h): 266000 nM |
| Nc1ncnc2c1ncn2[C@@H]1O[C@H](CNS(=O)(=O)NC(=O)[C@@H](N)Cc2ccc(O)cc2)[C@@H](O)[C@H]1O [V] | 17 | 790 |  |
| Nc1ncnc2c1ncn2[C@@H]1O[C@H](CNS(=O)(=O)NC(=O)[C@@H](N)Cc2c[nH]cn2)[C@@H](O)[C@H]1O [XIII] | 2 | 2690 |  |
| N=C(N)NCCC[C@H](N)C(=O)NS(=O)(=O)NC[C@H]1O[C@@H](n2cnc3c(N)ncnc32)[C@H](O)[C@@H]1O [XVII] | 14 | 3990 |  |
| Nc1ncnc2c1ncn2[C@@H]1O[C@H](CNS(=O)(=O)NC(=O)[C@@H]2CCCN2)[C@@H](O)[C@H]1O [XV] | 1 | 900 |  |
